Activity calls are given as the source filed them.
Key:
Type in all cases: functional, organism-based
[1] = tested on: Mycobacterium tuberculosis; test: Antimicrobial activity against rifampicin-resistant Mycobacterium tuberculosis 19000 after 2 to 3 weeks
[2] = tested on: Mycobacterium tuberculosis; test: Antimicrobial activity against streptomycin-resistant Mycobacterium tuberculosis ATCC 35820 after 2 to 3 weeks
[3] = tested on: Mycobacterium tuberculosis; test: Antimicrobial activity against isoniazid-resistant Mycobacterium tuberculosis ATCC 35822 after 2 to 3 weeks
[4] = tested on: Mycobacterium tuberculosis; test: Antimicrobial activity against ethionamide-resistant Mycobacterium tuberculosis 1700 after 2 to 3 weeks

Measured: Activity

NC(=O)c1cccnc1OCc1ncc(-c2ccc(OCCCF)cc2Cl)cn1
active: all assays above

CC(C)OCCOc1ccc(-c2cnc(COc3ncccc3C(N)=O)nc2)c(Cl)c1
active: all assays above

COCCOc1ccc(-c2ccc(COc3ncccc3C(N)=O)nc2)c(C)c1
active: all assays above

Source: ChEMBL document CHEMBL3286119, “Biarylmethoxy Nicotinamides As Novel and Specific Inhibitors of Mycobacterium tuberculosis” (ACS Med Chem Lett, 2014)
